Reference: ChEMBL document CHEMBL1201862, “PubChem BioAssay data set” (2004)
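Growth conditions: 96-well plates. Treatment: test compound, 48 hours, 5 concentrations. Analysis: linear interpolation between bracketing concentrations; unreached endpoints set to highest concentration. GI50: concentration for 50% inhibition of growth.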 Calls of active or inactive are those of the source. Rule as the data show it: active = GI50 up to about 1.1 µM and inactive = higher. Where a SMILES comes first, the peptide text is derived from it. [ ]: non-standard residue; d: D form. The star is where a group is joined. Phe(2-OMe) = COc1ccccc1C[CH](N)C(=O)O; Cbz = O=C(OCc1ccccc1)*; OBn = c1ccc(CO*)cc1

Legend:
Assay in all cases: DTP human tumour cell line panel, 48 h
SK-MEL-5 = tested on: SK-MEL-5
SF-295 = tested on: SF-295
OVCAR-3 = tested on: OVCAR-3
SNB-75 = tested on: SNB-75
IGROV-1 = tested on: IGROV-1
Malme-3M = tested on: Malme-3M
COLO 205 = tested on: COLO 205
HCT-116 = tested on: HCT-116
MOLT-4 = tested on: MOLT-4
DU-145 = tested on: DU-145
UACC-257 = tested on: UACC-257
NCI-H460 = tested on: NCI-H460
SK-OV-3 = tested on: SK-OV-3
OVCAR-8 = tested on: OVCAR-8
LOX IMVI = tested on: LOX IMVI
UACC-62 = tested on: UACC-62
Hs-578T = tested on: Hs-578T
HOP-62 = tested on: HOP-62
NCI/ADR-RES = tested on: NCI/ADR-RES
SK-MEL-2 = tested on: SK-MEL-2
SN12C = tested on: SN12C
M14 = tested on: M14
SR = tested on: SR
ACHN = tested on: ACHN
HOP-92 = tested on: HOP-92
SW-620 = tested on: SW-620
MDA-MB-231 = tested on: MDA-MB-231
MDA-N = tested on: MDA-N
HCT-15 = tested on: HCT-15
NCI-H522 = tested on: NCI-H522
T47D = tested on: T47D
HT-29 = tested on: HT-29
SF-268 = tested on: SF-268
PC-3 = tested on: PC-3
EKVX = tested on: EKVX
786-0 = tested on: 786-0
A549 = tested on: A549
RPMI-8226 = tested on: RPMI-8226
CCRF-CEM = tested on: CCRF-CEM
U-251 = tested on: U-251
RXF 393 = tested on: RXF 393
SF-539 = tested on: SF-539
HL-60 = tested on: HL-60
SNB-19 = tested on: SNB-19
NCI-H23 = tested on: NCI-H23
OVCAR-5 = tested on: OVCAR-5
HCC 2998 = tested on: HCC 2998
CAKI-1 = tested on: CAKI-1
K562 = tested on: K562
NCI-H226 = tested on: NCI-H226
MDA-MB-435 = tested on: MDA-MB-435
TK-10 = tested on: TK-10
MCF7 = tested on: MCF7
KM12 = tested on: KM12
A498 = tested on: A498
SK-MEL-28 = tested on: SK-MEL-28
OVCAR-4 = tested on: OVCAR-4
BT-549 = tested on: BT-549
UO-31 = tested on: UO-31

CC(C)(C)[Si](C)(C)OCC1OC(n2cnc3c(N)ncnc32)C(O[Si](C)(C)C(C)(C)C)C1O[Si](C)(C)C(C)(C)C (stereo unspecified)
GI50 (SK-MEL-5): 3.65 µM (inactive)
GI50 (SF-295): 10.3 µM (inactive)
GI50 (OVCAR-3): 2.87 µM (inactive)
GI50 (SNB-75): 13.4 µM (inactive)
GI50 (IGROV-1): 8.39 µM (inactive)
GI50 (Malme-3M): 44.9 µM (inactive)
GI50 (COLO 205): 19.5 µM (inactive)
GI50 (HCT-116): 6.11 µM (inactive)
GI50 (MOLT-4): 2.04 µM (inactive)
GI50 (DU-145): 7.93 µM (inactive)
GI50 (UACC-257): 6.17 µM (inactive)
GI50 (NCI-H460): 4.11 µM (inactive)
GI50 (SK-OV-3): > 10 µM (inactive)
GI50 (OVCAR-8): 14.1 µM (inactive)
GI50 (LOX IMVI): 6.43 µM (inactive)
GI50 (UACC-62): 7.41 µM (inactive)
GI50 (Hs-578T): 15.6 µM (inactive)
GI50 (HOP-62): 13.9 µM (inactive)
GI50 (NCI/ADR-RES): > 100 µM (inactive)
GI50 (SK-MEL-2): 15.2 µM (inactive)
GI50 (SN12C): 14.9 µM (inactive)
GI50 (M14): 11.1 µM (inactive)
GI50 (SR): 10.3 µM (inactive)
GI50 (ACHN): 6.82 µM (inactive)
GI50 (HOP-92): 33.7 µM (inactive)
GI50 (SW-620): 10.8 µM (inactive)
GI50 (MDA-MB-231): 10.9 µM (inactive)
GI50 (MDA-N): 7.14 µM (inactive)
GI50 (HCT-15): 35 µM
GI50 (NCI-H522): 7.76 µM (inactive)
GI50 (T47D): 11.9 µM (inactive)
GI50 (HT-29): 9.75 µM (inactive)
GI50 (SF-268): 15.1 µM (inactive)
GI50 (PC-3): 2.85 µM (inactive)
GI50 (EKVX): 24.9 µM (inactive)
GI50 (786-0): 3.66 µM (inactive)
GI50 (A549): 9.27 µM (inactive)

CC1(c2ccccc2)N=c2[nH]cnc2=C(C(N)=O)N1 (stereo unspecified)
GI50 (SK-MEL-5): > 100 µM (inactive)
GI50 (RPMI-8226): > 100 µM (inactive)
GI50 (SF-295): > 100 µM (inactive)
GI50 (OVCAR-3): > 100 µM (inactive)
GI50 (CCRF-CEM): > 100 µM (inactive)
GI50 (SNB-75): > 100 µM (inactive)
GI50 (IGROV-1): > 100 µM (inactive)
GI50 (Malme-3M): > 100 µM (inactive)
GI50 (COLO 205): > 100 µM (inactive)
GI50 (HCT-116): > 100 µM (inactive)
GI50 (U-251): > 100 µM (inactive)
GI50 (RXF 393): > 100 µM (inactive)
GI50 (SF-539): > 100 µM (inactive)
GI50 (DU-145): > 100 µM (inactive)
GI50 (HL-60): > 100 µM (inactive)
GI50 (UACC-257): > 100 µM (inactive)
GI50 (NCI-H460): > 100 µM (inactive)
GI50 (SK-OV-3): > 100 µM (inactive)
GI50 (OVCAR-8): > 100 µM (inactive)
GI50 (SNB-19): > 100 µM (inactive)
GI50 (NCI-H23): > 100 µM (inactive)
GI50 (LOX IMVI): > 100 µM (inactive)
GI50 (UACC-62): > 100 µM (inactive)
GI50 (Hs-578T): > 100 µM (inactive)
GI50 (HOP-62): > 100 µM (inactive)
GI50 (NCI/ADR-RES): > 100 µM (inactive)
GI50 (SK-MEL-2): > 100 µM (inactive)
GI50 (SN12C): > 100 µM (inactive)
GI50 (M14): > 100 µM (inactive)
GI50 (SR): > 100 µM (inactive)
GI50 (ACHN): > 100 µM (inactive)
GI50 (HOP-92): > 100 µM (inactive)
GI50 (SW-620): > 100 µM (inactive)
GI50 (OVCAR-5): > 100 µM (inactive)
GI50 (MDA-MB-231): > 100 µM (inactive)
GI50 (MDA-N): > 100 µM (inactive)
GI50 (HCC 2998): > 100 µM (inactive)
GI50 (HCT-15): > 100 µM
GI50 (NCI-H522): > 100 µM (inactive)
GI50 (CAKI-1): > 100 µM (inactive)
GI50 (K562): > 100 µM (inactive)
GI50 (NCI-H226): > 100 µM (inactive)
GI50 (MDA-MB-435): > 100 µM (inactive)
GI50 (T47D): > 100 µM (inactive)
GI50 (HT-29): > 100 µM (inactive)
GI50 (SF-268): > 100 µM (inactive)
GI50 (TK-10): > 100 µM (inactive)
GI50 (MCF7): > 100 µM (inactive)
GI50 (PC-3): > 100 µM (inactive)
GI50 (EKVX): > 100 µM (inactive)
GI50 (786-0): > 100 µM (inactive)
GI50 (KM12): > 100 µM (inactive)
GI50 (A498): > 100 µM (inactive)
GI50 (SK-MEL-28): > 100 µM (inactive)
GI50 (OVCAR-4): > 100 µM (inactive)
GI50 (A549): > 100 µM (inactive)

COC(=O)C(Cc1ccccc1OC)NC(=O)C(CC(=O)OCc1ccccc1)NC(=O)OCc1ccccc1 (stereo unspecified) (Cbz-Asp(OBn)-[Phe(2-OMe)]-OMe; configuration not given here)
GI50 (SK-MEL-5): > 100 µM (inactive)
GI50 (RPMI-8226): 41 µM (inactive)
GI50 (CCRF-CEM): 38 µM (inactive)
GI50 (SNB-75): > 100 µM (inactive)
GI50 (IGROV-1): > 100 µM (inactive)
GI50 (Malme-3M): > 100 µM (inactive)
GI50 (COLO 205): 46.3 µM (inactive)
GI50 (BT-549): > 100 µM (inactive)
GI50 (HCT-116): 55.5 µM (inactive)
GI50 (U-251): 97.5 µM (inactive)
GI50 (MOLT-4): 33.7 µM (inactive)
GI50 (RXF 393): 70.8 µM (inactive)
GI50 (UO-31): 64.6 µM (inactive)
GI50 (HL-60): 34.5 µM (inactive)
GI50 (UACC-257): > 100 µM (inactive)
GI50 (NCI-H460): 34.4 µM (inactive)
GI50 (OVCAR-8): > 100 µM (inactive)
GI50 (SNB-19): > 100 µM (inactive)
GI50 (NCI-H23): > 100 µM (inactive)
GI50 (UACC-62): 82 µM (inactive)
GI50 (Hs-578T): > 100 µM (inactive)
GI50 (HOP-62): > 100 µM (inactive)
GI50 (SK-MEL-2): > 100 µM (inactive)
GI50 (M14): > 100 µM (inactive)
GI50 (SR): 27.9 µM (inactive)
GI50 (ACHN): > 100 µM (inactive)
GI50 (HOP-92): > 100 µM (inactive)
GI50 (SW-620): > 100 µM (inactive)
GI50 (OVCAR-5): > 100 µM (inactive)
GI50 (MDA-N): 95.7 µM (inactive)
GI50 (HCC 2998): > 100 µM (inactive)
GI50 (K562): 61.5 µM (inactive)
GI50 (NCI-H226): > 100 µM (inactive)
GI50 (HT-29): 65.3 µM (inactive)
GI50 (TK-10): > 100 µM (inactive)
GI50 (MCF7): 54 µM (inactive)
GI50 (PC-3): 60 µM (inactive)
GI50 (EKVX): > 100 µM (inactive)
GI50 (786-0): > 100 µM (inactive)
GI50 (KM12): > 100 µM (inactive)
GI50 (A498): 88.1 µM (inactive)
GI50 (SK-MEL-28): 38.6 µM (inactive)
GI50 (A549): 60.3 µM (inactive)
